Reference: ChEMBL document CHEMBL3885861, “Open TG-GATES”

Species: Rattus norvegicus
Assay: Open TG-GATES - Regimen: Daily Repeat
Assay type: toxicity, organism-based, Sprague-Dawley
Design: regimen Daily Repeat, gender Male, age 6 weeks
Conditions: in vivo, po, 150 mg/kg, route gavage, dose level High; for APTT / Bas / Eos / Fbg / Hb / Ht / Lym / MCH / MCHC / MCV / Mono / Neu / PT / Plat / RBC / Ret / WBC: tissue Blood; for KIDNEY_L / KIDNEY_R / KIDNEY_TOTAL: tissue Kidney; for LIVER: tissue Liver; for A/G / ALP / ALT / AST / BUN / CRE / Ca / Cl / DBIL / GLC / IP / K / LDH / Na / PL / RALB / TBIL / TC / TG / TP / gamma-GTP: tissue Plasma

## CN(C)CCC=C1c2ccccc2CCc2ccccc21 [AMITRIPTYLINE]
72 h, time 3 day
  TERMINAL_BW: 200.8 g
  APTT: 15 s
  Bas: 0.2%
  Eos: 1.2%
  Fbg: 288.6 mg/dL
  Hb: 14.4 g/dL
  Ht: 43.5%
  Lym: 79.6%
  MCH: 20.5 pg
  MCHC: 33.2%
  MCV: 61.8 fL
  Mono: 2.4%
  Neu: 16.2%
  PT: 16 s
  Plat: 125 x10_4/uL
  RBC: 705 x10_4/ul
  Ret: 4.5%
  WBC: 87.2 x10_2/uL
  KIDNEY_L: 0.9 g
  KIDNEY_R: 0.9 g
  KIDNEY_TOTAL: 1.8 g
  LIVER: 9.1 g
  A/G: 0.8
  ALP: 1755.4 IU/L
  ALT: 45.4 IU/L
  AST: 63 IU/L
  BUN: 13.8 mg/dL
  CRE: 0.2 mg/dL
  Ca: 10.7 mg/dL
  Cl: 106.2 meq/L
  DBIL: 0.016 mg/dL
  GLC: 174.4 mg/dL
  IP: 8 mg/dL
  K: 4.4 meq/L
  LDH: 86.2 IU/L
  Na: 143.8 meq/L
  PL: 155.8 mg/dL
  RALB: 2.6 g/dL
  TBIL: 0.052 mg/dL
  TC: 94.2 mg/dL
  TG: 93 mg/dL
  TP: 5.8 g/dL
  gamma-GTP: 0.6 IU/L
[…], time 7 day
  TERMINAL_BW: 206.8 g
  APTT: 16.2 s
  Bas: 0%
  Eos: 1.4%
  Fbg: 413.4 mg/dL
  Hb: 15.3 g/dL
  Ht: 45.5%
  Lym: 70.8%
  MCH: 20.6 pg
  MCHC: 33.5%
  MCV: 61.6 fL
  Mono: 2.4%
  Neu: 24.6%
  PT: 15.9 s
  Plat: 108.8 x10_4/uL
  RBC: 740.8 x10_4/ul
  Ret: 3.1%
  WBC: 99.3 x10_2/uL
  KIDNEY_L: 0.9 g
  KIDNEY_R: 1 g
  KIDNEY_TOTAL: 1.9 g
  LIVER: 9.5 g
  A/G: 0.8
  ALP: 1572.2 IU/L
  ALT: 42.6 IU/L
  AST: 64.2 IU/L
  BUN: 14.4 mg/dL
  CRE: 0.2 mg/dL
  Ca: 10.6 mg/dL
  Cl: 104.8 meq/L
  DBIL: 0.008 mg/dL
  GLC: 169.2 mg/dL
  IP: 8 mg/dL
  K: 4.1 meq/L
  LDH: 68.2 IU/L
  Na: 143.8 meq/L
  PL: 144.6 mg/dL
  RALB: 2.7 g/dL
  TBIL: 0.042 mg/dL
  TC: 97 mg/dL
  TG: 29.6 mg/dL
  TP: 5.9 g/dL
  gamma-GTP: 0.8 IU/L
[…], time 14 day
  TERMINAL_BW: 250.8 g
  APTT: 16.2 s
  Bas: 0.6%
  Eos: 0.8%
  Fbg: 326.6 mg/dL
  Hb: 15 g/dL
  Ht: 44.7%
  Lym: 76.6%
  MCH: 19.7 pg
  MCHC: 33.6%
  MCV: 58.6 fL
  Mono: 2.4%
  Neu: 19.2%
  PT: 16.6 s
  Plat: 110.7 x10_4/uL
  RBC: 763.4 x10_4/ul
  Ret: 2.8%
  WBC: 128.1 x10_2/uL
  KIDNEY_L: 1 g
  KIDNEY_R: 1 g
  KIDNEY_TOTAL: 2 g
  LIVER: 12.8 g
  A/G: 0.8
  ALP: 1690.2 IU/L
  ALT: 39.8 IU/L
  AST: 59.2 IU/L
  BUN: 15.8 mg/dL
  CRE: 0.2 mg/dL
  Ca: 10.9 mg/dL
  Cl: 104 meq/L
  DBIL: 0.012 mg/dL
  GLC: 164.2 mg/dL
  IP: 7.6 mg/dL
  K: 4.3 meq/L
  LDH: 51.2 IU/L
  Na: 143.6 meq/L
  PL: 135 mg/dL
  RALB: 2.6 g/dL
  TBIL: 0.042 mg/dL
  TC: 78.6 mg/dL
  TG: 62.8 mg/dL
  TP: 6 g/dL
  gamma-GTP: 0.6 IU/L
[…], time 28 day
  TERMINAL_BW: 303.4 g
  APTT: 22.2 s
  Bas: 0.3%
  Eos: 1%
  Fbg: 311.3 mg/dL
  Hb: 15.8 g/dL
  Ht: 46.1%
  Lym: 82%
  MCH: 19.1 pg
  MCHC: 34.3%
  MCV: 55.9 fL
  Mono: 1.7%
  Neu: 14%
  PT: 16.4 s
  Plat: 97.9 x10_4/uL
  RBC: 824.3 x10_4/ul
  Ret: 2%
  WBC: 104.7 x10_2/uL
  KIDNEY_L: 1.2 g
  KIDNEY_R: 1.2 g
  KIDNEY_TOTAL: 2.4 g
  LIVER: 16.8 g
  A/G: 0.9
  ALP: 1692.3 IU/L
  ALT: 39.7 IU/L
  AST: 57.7 IU/L
  BUN: 14.7 mg/dL
  CRE: 0.2 mg/dL
  Ca: 10.7 mg/dL
  Cl: 103.7 meq/L
  DBIL: 0.0167 mg/dL
  GLC: 174 mg/dL
  IP: 7.1 mg/dL
  K: 4 meq/L
  LDH: 50 IU/L
  Na: 143 meq/L
  PL: 97.7 mg/dL
  RALB: 2.9 g/dL
  TBIL: 0.0467 mg/dL
  TC: 56.3 mg/dL
  TG: 35.3 mg/dL
  TP: 6.3 g/dL
  gamma-GTP: 0.7 IU/L
